Source: paper PMC11672292, “Discovery of Balasubramide Derivative with Tissue‐Specific Anti‐Inflammatory Activity Against Acute Lung Injury by Targeting VDAC1” (Advanced Science, 2024)

Experiments:
[1] = system: LPS-stimulated RAW264.7 cells; experiment: LPS-induced TNF-α release in RAW264.7 macrophages (ELISA); format: cell-based, mouse; details: Mus musculus, RAW264.7 cells
Experimental: The anti‐inflammatory effects of all (+)‐balasubramide derivatives were evaluated in Lipopolysaccharide (LPS, L2630, Sigma–Aldrich, USA)‐induced macrophage inflammation model. RAW264.7 cells were pretreated with various compounds or (+)3C‐20 at different concentrations for 3 h, and then stimulated with LPS (100 ng mL^−1) for 2 h for the detection of pro‐inflammatory factors expressions. Similarly, following 3 h co‐incubation with (+)3C‐20, mouse BMDMs were stimulated with LPS (100 ng mL^−1) for 3 h. TNF‐α protein in the culture medium supernatant was measured by a commercial ELISA kit (#1 217 202, DAKEWE, China) following the manufacture's protocols.

mice [2] = experiment: Subacute toxicity, 28 consecutive days of administration; format: in vivo
BMDMs = experiment: NLRP3 inflammasome-induced pyroptosis, LDH release; format: cell-based, mouse; details: 10 µM, LPS plus ATP, Nigericin or MSU, compared with parent compound (+)3J
Experimental: According to previous reports,^[ [65] ^] NLRP3 inflammasome was activated in BMDMs primed with LPS (100 ng mL^−1) for 3 h, and the inflammasome was further assembled using ATP (5 mM, A6419, Sigma–Aldrich, USA) for 45 min, or Nigericin ([…], T3092, TargetMol, USA) for 1 h, or Monosodium Urate Crystal (MSU, 600 µg mL^−1, T41242, TargetMol, USA) for 6 h. To investigate the effect of compounds in NLRP3 inflammasome activation, the cells pretreated with compounds were stimulated with LPS for 3 h and followed by stimulation with ATP for another 45 min, or nigericin for another 1 h, or MSU for another 6 h to activate NLRP3 inflammasome.
Cell culture supernatants were collected and centrifuged to remove cell debris at 800 rpm for 5 min. LDH measurement was performed with an LDH cytotoxicity assay kit (C0017, Beyotime, China) according to the manufacture's instructions. Data were plotted normalizing the OD490 value of the model group as 100%.

in vivo = details: mouse, iv
Source text: (§1) To test the safety of (+)3C‐20 in mice, as previously reported,^[ [31] ^] we estimated the acute toxicity of (+)3C‐20 in mice using a sequential method.

mice [3] = experiment: Acute toxicity (LD50, sequential method), single intravenous injection; details: i.v.
Source text: as §1

[4] = molecular target: T1, VDAC1 oligomerization in LPS-primed BMDMs (Mus musculus, UniProt Q60932); experiment: VDAC1 cross-linking (oligomerization) assay; format: cell-based; details: DSS cross-linking, immunoblotting
T1 construct: endogenous in cells; host or cells: primary bone marrow-derived macrophages (BMDMs) from C57BL/6J mice
Experimental: The cells (BMDM, iBMDM, RAW264.7, and HEK293T) treated with (+)3C‐20 were washed twice by PBS and lysed in RIPA. The lysate was incubated for 30 min at 30 °C with the cross‐linking reagent DSS (1 mM), mixed with 4 × laemmli buffer with DTT, subjected to SDS‐PAGE and immunoblotting analyzed with anti‐VDAC1 antibody.

[5] = system: intratracheal LPS-induced ALI mice; experiment: Intratracheal instillation of LPS-induced ALI model; format: in vivo, mouse
Experimental: The intratracheal instillation of the LPS‐induced ALI model in mice has been previously validated.^[ [60], [61] ^] […] The injection volume of all groups was 10 mL kg^−1. […] The mice were fixed in dorsal recumbency, then the skins and muscles of the mice were separated to expose the tracheal after disinfection. Subsequently, mice were intratracheally injected with 50 µL LPS (20 mg kg^−1) or PBS into the lung through tracheal cartilage rings by using insulin syringes and observed after stitching up the muscles and skins. At 6 h after LPS injection, mice were euthanized to collect samples required for subsequent experiments.
After mice were sacrificed, the left lung tissue fixed with 4% paraformaldehyde was embedded in paraffin, cut into 5 µm thick sections, and stained with hematoxylin and eosin.
Mice were stimulated and treated as indicated in experiments and the lung was lavaged three times through the trachea with 500 µL pre‐chilled PBS buffer. The fluids were merged and centrifuged at 600 × g for 10 min. The supernatant was collected to measure total protein using the BCA kit and for pro‐inflammatory cytokines detection by ELISA described above, and cell pellets after centrifugation were resuspended in FACS buffer (PBS with 1% FBS). […] Finally, the samples were washed twice with FACS buffer and analyzed with Cytoflex S (Beckman coulter, USA)

sepsis-induced ALI mice = experiment: Sepsis-induced acute lung injury (ALI) model (i.p. LPS); format: in vivo, mouse
Experimental: For sepsis‐induced ALI model, C57BL/6J mice were randomly divided into five experimental groups (n = 8–9) according to weight, including control group (PBS+Vehicle), vehicle group (LPS+Vehicle), Dexamethasone treated group (LPS+DEX at 5 mg kg^−1), (+)3C‐20 treated group (LPS+3C‐20 at 10 mg kg^−1 or 50 mg kg^−1). All mice were weighed and intraperitoneally administered DEX, (+)3C‐20 (dissolved in vehicle solution) or vehicle (5% DMSO, 20% BASF Kolliphor HS15, 75% Saline) daily for 3 consecutive days with the determined injection volume (10 mL kg^−1). After the third administration, except for the control group, mice were intraperitoneally injected with LPS (10 mg kg^−1, 10 mL kg^−1) dissolved in PBS 2 h after vehicle or compound pretreatment. […]
After mice were sacrificed, the left lung tissue fixed with 4% paraformaldehyde was embedded in paraffin, cut into 5 µm thick sections, and stained with hematoxylin and eosin. The slices were scanned with light microscopy (BX53, Olympus, Japan) to evaluate gross morphology and lung damage and inflammation, then the alveolar cells area of the image obtained was calculated with Image J 1.51 (NIH, USA), and the histopathological lung injury scores were determined as previously reported.^[ [62] ^]

T1 sequence (Q60932 14-296): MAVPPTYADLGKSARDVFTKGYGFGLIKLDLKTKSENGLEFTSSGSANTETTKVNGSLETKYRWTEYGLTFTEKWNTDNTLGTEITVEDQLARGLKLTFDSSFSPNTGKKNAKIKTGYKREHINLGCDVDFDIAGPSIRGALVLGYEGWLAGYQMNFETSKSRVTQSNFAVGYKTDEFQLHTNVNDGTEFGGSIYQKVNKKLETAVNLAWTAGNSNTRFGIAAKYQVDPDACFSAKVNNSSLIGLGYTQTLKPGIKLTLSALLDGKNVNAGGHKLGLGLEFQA

## O=C(CCc1ccc(C(F)(F)F)cc1)O[C@@H]1C(=O)NCCc2c([nH]c3ccccc23)[C@H]1c1ccc(C(F)(F)F)cc1 [(+)3C-20]
[1]; 10 μM + LPS (100 ng/mL), n = 3, read-out: Inhibition rate (%) of TNF-α release
  inhibition at 10 µM: 82 ± 3.93%
[1]; read-out: IC50, inhibition of LPS-induced TNF-α release
  IC50: 11.8 µM
Mice [2]; 50 mg kg^−1, 28 days
  effects on the liver (AST, ALT): no harmful effects
Mice [2]; 28 consecutive days of administration, 50 mg/kg
  changes in body weight or relative organ weight: did not observe any harmful changes
BMDMs
  NLRP3 inflammasome activators-stimulated cell death (membrane blebbing, LDH release): significantly decreased
In vivo
  LD50: 185 mg/kg
Mice [3]; dosage 141.42 mg/kg
  Mortality: 0
Mice [3]; dosage 168.18 mg/kg
  Mortality: 20
Mice [3]; dosage 200.00 mg/kg
  Mortality: 83.33
Mice [3]; dosage 237.84 mg/kg
  Mortality: 100
[4]
  VDAC1 oligomerization: inhibit VDAC1 oligomerization in a dose‐dependent manner
[5]; 50 mg kg^−1, compared to dexamethasone 5 mg kg^−1
  therapeutic effect in H&E lung histology: better therapeutic effect
[5]; after intratracheal instillation of LPS, 72 h observation, versus vehicle group
  survival rate of mice: increased the survival rate
[5]; mice, 50 mg kg^−1 i.p., LPS 20 mg kg^−1 i.t.
  lung index (lung organ coefficient): reverse the upregulation of lung index
[5]; pre-treatment at 50 mg kg^−1, LPS 20 mg kg^−1 i.t.
  lung wet/dry ratio: significantly reduced
sepsis-induced ALI mice; i.p. 10 or 50 mg kg^−1, 3 days pretreatment, LPS 10 mg kg^−1 i.p.
  secretion of TNF-α in serum: dose‐dependently decreased
sepsis-induced ALI mice; pretreated at 10 or 50 mg kg^−1, versus vehicle group
  histopathological damage of lung (H&E): less histopathological damage
